Assay results: BindingDB's records for doi:10.1016/j.ejmech.2016.12.029 (University of Auckland, 2017)

Assay: Inhibition of recombinant human IDO1 expressed in yeast assessed as yeast growth restoration after 40 to 45 hrs in presence of galactose

CN1CCN(C(CO)Cc2ccccc2)CC1 (stereo unspecified)
EC50: 2 µM
